Molecules are shown by their SMILES.

The test system of assay [1] is mice. As to the kind of experiment: antiaggressive effect, "fighting behaviour" test. Format: in vivo. The conditions noted are these: for ED50: Mus musculus, po; for Relative activity: antiaggressive effect, p.o., tofizopam = 1.0. The source says: The antiaggressive effect was studied on mice by the so-called "fighting behaviour" test [J. Pharm. Exp. Ther. 125, 28 (1959)]. Tofizopam and 1-(3-chlorophenyl)-4-methyl-7,8-dimethoxy-5H-2,3-benzodiazepine were used as reference agents.

For assay [2], the system named is mice. As to the kind of experiment: narcosis potentiating effect (sodium hexobarbital narcosis). It is filed as in vivo. The conditions noted are these: Mus musculus, po, 50 mg/kg sodium hexobarbital i.v., limits between slashes, read-out: ED50 (dose increasing the narcosis period of half of the test animals to double). As to the method:
The narcosis potentiating effect was studied on mice. The compounds were administered in 3 or 4 oral doses to 15-20 animals per dose. Narcosis was induced with 50 mg/kg of sodium hexobarbital injected intravenously into the animals. The ED50 value is the dose increasing the narcosis period of half of the test animals to double.

A short description of assay [3]: anxiolytic effect, Vogel lick-conflict test. Format: in vivo. As to the method:
The anxiolytic effect was determined by the method of Vogel lick-conflict test/[Psychopharmacol. 21, 1 1979]. Tofizopam, 1-(3-chlorophenyl)-4-methyl-7,8-dimethoxy-5H-2,3-benzodiazepine and Chlorodiazepoxide 7-chloro-2-methylamino-5-phenyl-3H-1,4-benzodiazepine-4-oxide were used as reference agents.

Assay [4] has as its system mice from the CFLP strain. As to the kind of experiment: spontaneous motor activity, motimeter of Animex type. It is filed as in vivo. The conditions noted are these: Mus musculus, po, 2 hours registration, Litchfield and Wilcoxon, limits between slashes, read-out: ED50 value (dose decreasing the spontaneous motor activity to half). As to the method: The spontaneous motor activity was measured on a motimeter of Animex type. Groups of animal consisting of 3 mice from the CFLP strain weighing 20 to 23 g were starved for 24 hours and put to the apparatus. After a previous treatment of 10 minutes the amount of movements was registered continuously for 2 hours. The dose decreasing the spontaneous motor activity to half in comparison with the control group treated with vehiculum was determined.
The ED50 values were calculated by the method of Litchfield and Wilcoxon [J. Pharmacol. Exp. Ther. 96, 99 1949].

For assay [5], the system named is mice. As to the kind of experiment: hypnotic activity in mice (HD50). It is filed as in vivo. The conditions noted are these: for ED50: Mus musculus, mice.
In a further assay the test system is rats. As to the kind of experiment: hypnotic activity in rats (HD50). Conditions: Rattus norvegicus, iv. Format: in vivo.
Assay [6] in a line: muscle relaxant activity, "inclined screen" test. It is filed as in vivo.
Assay [7] can be described thus: muscle relaxant activity, rotarod test. Format: in vivo. The conditions noted are these: ip, read-out: ED50, rotarod test. In general terms: In the rotarod test animals must keep their balance on a rotating rod.
The conditions of assay [8]: tofizopam used in the therapy; cited from earlier work.

A word on the ED50: it is the dose at which the effect has come halfway, by size or by number of responders. As for `COc1cc2c(cc1OC)C(c1cccc(Cl)c1)=NN=C(C)C2` [1-(3-chlorophenyl)-4-methyl-7,8-dimethoxy-5H-2,3-benzodiazepine, reference compound], the ED50 in the assay on mice [1] came out at 16 mg/kg; in the assay on mice [2], 16 mg/kg; in assay [4], 6.2 mg/kg. This molecule also had a Relative activity with mice [1] of 4.6. The results for the “Number of electric shocks tolerated” value in assay [3] (25 mg/kg i.p.) and in [3] (50 mg/kg i.p.) were 9.9 ± 2.8 and 19.0 ± 2.3, respectively.
As for `CNC1=Nc2ccc(Cl)cc2C(c2ccccc2)=[N+]([O-])C1` [Chlorodiazepoxide, 7-chloro-2-methylamino-5-phenyl-3H-1,4-benzodiazepine-4-oxide, reference compound], the “Number of electric shocks tolerated” value is reported as 9.7 ± 3.7 in assay [3] (5 mg/kg i.p.) and 27.5 ± 2.5 in [3] (10 mg/kg i.p.).
Consider `COc1cc2c(cc1OC)C(c1ccc(N)cc1)=NN=C(C)C2` [Example 1, 1-(4-aminophenyl)-4-methyl-7,8-dimethoxy-5H-2,3-benzodiazepine], for which the 50% effective dose (ED50) with mice [1] came to 8.1 mg/kg; in the assay with mice [2], 4.8 mg/kg; in assay [4], 3.2 mg/kg. Also, the Relative activity with mice [1] was 7.9. The “Number of electric shocks tolerated” value in [3] (2.5 mg/kg i.p.) came to 4.1 ± 0.7; in assay [3] (5 mg/kg i.p.), 13.9 ± 2.7; in [3] (10 mg/kg i.p.), 19.7 ± 2.9.
`COc1cc2c(cc1OC)C(c1cccc(N)c1)=NN=C(C)C2` [Example 2, 1-(3-Aminophenyl)-4-methyl-7,8-dimethoxy-5H-2,3-benzodiazepine]: the figures for the ED50 (in the assay with mice [1]; in the assay on mice [2]; in [4]) were 12.5 mg/kg, 8.2 mg/kg and 1.3 mg/kg, respectively. Moreover, the Relative activity with mice [1] came out at 5.1. Also, the “Number of electric shocks tolerated” value in [3] (10 mg/kg i.p.) was determined as 4.2 ± 0.7; in assay [3] (25 mg/kg i.p.), 15.1 ± 1.9.
In the case of `CC1=NN=C(c2ccc(N)cc2)c2cc3c(cc2C1)OCO3` [Example 8, 1-(4-aminophenyl)-4-methyl-7,8-methylenedioxy-5H-2,3-benzodiazepine], the ED50 with mice [2] is 7.4 mg/kg; in the assay with mice [5] (ip), 70 mg/kg; in the assay with mice [5] (iv) it was 40 mg/kg; with mice [5] (po), 140 mg/kg; with rats it was 40 mg/kg; in assay [6] (ip, read-out: ED50, inclined screen test) it was 47 mg/kg. For the same molecule, the 50% effective dose (ED50) is 48 mg/kg in assay [4] and 24 mg/kg in [7]. In the assay with mice [5] (mice and rats), the “hypnotic activity (in words)” value is recorded as “significant hypnotic activity”. Also, in [6] (versus Zoxazolamine, inclined screen and rotarod), the “muscle relaxant activity (in words)” value is “more potent than the reference substance Zoxazolamine”.
As to `COc1cc2c(cc1OC)C(c1ccc(N)c(C)c1)=NN=C(C)C2` [Example 10, 1-(3-Methyl-4-aminophenyl)-4-methyl-7,8-dimethoxy-5H-2,3-benzodiazepine], the 50% effective dose (ED50) came out at 9.1 mg/kg in the assay with mice [1], 7.4 mg/kg with mice [2] and 4.4 mg/kg in [4]. In addition, the Relative activity with mice [1] stood at 7.0.
In the assay on mice [1], `COc1cc2c(cc1OC)C(C)C(C)=NN=C2c1ccc(N)cc1` (stereo not drawn) [Example 11, 1-(4-Aminophenyl)-4,5-dimethyl-7,8-dimethoxy-5H-2,3-benzodiazepine] registered a median effective dose (ED50) of 16 mg/kg and a Relative activity of 4.6.
As to `COc1cc2c(cc1OC)C(c1ccc(C)c(N)c1)=NN=C(C)C2` [Example 15, 1-(3-Amino-4-methylphenyl)-4-methyl-7,8-dimethoxy-5H-2,3-benzodiazepine], the values for the ED50 (with mice [1]; in the assay with mice [2]; in assay [4]) were 17 mg/kg, 25 mg/kg and 9.7 mg/kg, respectively. The molecule further came in with a Relative activity in the assay on mice [1] of 3.8.
For `COc1cc2c(cc1OC)C(c1ccc(N)c(Cl)c1)=NN=C(C)C2` [Example 18, 1-(3-Chloro-4-aminophenyl)-4-methyl-7,8-dimethoxy-5H-2,3-benzodiazepine], the ED50 with mice [1] worked out at 7.9 mg/kg; in the assay with mice [2], 7.6 mg/kg. For the same molecule, in the assay on mice [1], the Relative activity is 8.1. The “Number of electric shocks tolerated” value in assay [3] (2.5 mg/kg i.p.) came out at 7.6 ± 3.0; in [3] (5 mg/kg i.p.) it was 8.3 ± 1.0.
Regarding `O=C1CN=C(c2ccccc2)c2cc([N+](=O)[O-])ccc2N1` [Nitrazepam, 7-nitro-5-phenyl-1,3-dihydro-2H-1,4-benzodiazepin-2-one, reference compound], the ED50 is 150 mg/kg in the assay on mice [5] (ip), 75 mg/kg in the assay with mice [5] (iv), 185 mg/kg in the assay on mice [5] (po) and 96 mg/kg in the assay with rats.
In the case of `CCC1C(C)=NN=C(c2ccc(OC)c(OC)c2)c2cc(OC)c(OC)cc21` (stereo not drawn) [Tofizopam, 1-(3,4-dimethoxyphenyl)-4-methyl-5-ethyl-7,8-dimethoxy-5H-2,3-benzodiazepine, reference compound], the “further central nervous character (in words), reference drug” value in [8] is “in addition to the anxiolytic effect, a weak antidepressant activity”. Further, the ED50 came to 74 mg/kg with mice [1], 38 mg/kg with mice [2] and 22 mg/kg in assay [4]. In addition, in the assay with mice [1], the Relative activity turned out to be 1.0. The “Number of electric shocks tolerated” value came to 3.6 ± 0.4 in [3] (25 mg/kg i.p.) and 19.8 ± 3.7 in assay [3] (50 mg/kg i.p.).

Source of the values: patent publication US4614740A, “5H-2,3-benzodiazepine derivatives and pharmaceutical compositions containing the same” (Egis Gyogyszergyar, priority 1984, dated 1986).
